Assay results as given in patent US11414429B2, “Compound or pharmaceutically acceptable salt thereof” (RIKEN, priority 2016, dated 2022).

Experiments:
tankyrase 2 (TNKS 2) = biological target: T1, tankyrase 2 (TNKS 2) (Homo sapiens, UniProt Q9H2K2); experiment: Tankyrase inhibitory activity test (ELISA, self-polyADP ribosylation), tankyrase 2; assay type: biochemical; settings: ELISA, self-polyADP ribosylation; class symbols; read-out: TNKS2 (inhibitory activity against tankyrase 2, IC50 value)
T1 construct: 613-1, 116aa; made in house; host or cells: cell-free protein synthesis system
Outline: (§1)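 IC50 was fitted to residual self-polyADP-ribosylation activity, detected by HRP-streptavidin chemiluminescence. Plate-bound Flag fusions (TNKS1 1,024-1,327aa SAM+PARP; TNKS2 613-1,116aa ANK5+SAM+PARP, cell-free synthesized) saw compound for 10 min at room temperature in 50 mM Tris-HCl pH 8.0, 4 mM MgCl2, 0.2 mM DTT. Reaction with 225 μM NAD/25 μM 6-biotin-17-NAD solution ran 45 min at 30 °C.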

tankyrase 1 (TNKS 1) = biological target: T2, tankyrase 1 (TNKS 1) (Homo sapiens, UniProt O95271); experiment: Tankyrase inhibitory activity test (ELISA, self-polyADP ribosylation), tankyrase 1; assay type: biochemical; settings: ELISA, self-polyADP ribosylation; class symbols; read-out: TNKS1 (inhibitory activity against tankyrase 1, IC50 value)
T2 construct: 1,024-1,327aa; made in house; host or cells: cell-free protein synthesis system
Outline: as §1

[1] = test system: human colorectal cancer cell line, COLO-320DM; experiment: Cell proliferation inhibitory activity test (Celltiter-Glo Luminescent Cell Viability Assay); assay type: cell-based; settings: COLO-320DM cells, 96 hours, class symbols, read-out: COLO-320 DM (cell proliferation inhibitory activity, GI50 value)
Outline: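 GI50 is taken as the concentration halving cell growth versus 1% DMSO control, measured by ATP luminescence. Compound exposure lasted 96 h at 37° C. under 5% CO2, after overnight seeding in RPMI-1640 with 10% FBS and 2 mM glutamine.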

T2 sequence (O95271 1024-1327): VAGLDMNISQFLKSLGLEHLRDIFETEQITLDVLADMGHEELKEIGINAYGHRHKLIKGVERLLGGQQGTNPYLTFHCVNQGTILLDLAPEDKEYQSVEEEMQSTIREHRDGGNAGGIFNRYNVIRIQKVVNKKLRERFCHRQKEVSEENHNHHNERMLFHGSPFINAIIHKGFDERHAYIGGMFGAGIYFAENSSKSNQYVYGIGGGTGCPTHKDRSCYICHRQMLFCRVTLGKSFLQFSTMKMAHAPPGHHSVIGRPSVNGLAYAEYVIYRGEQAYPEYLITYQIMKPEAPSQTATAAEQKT
T1 sequence (Q9H2K2 613-1166): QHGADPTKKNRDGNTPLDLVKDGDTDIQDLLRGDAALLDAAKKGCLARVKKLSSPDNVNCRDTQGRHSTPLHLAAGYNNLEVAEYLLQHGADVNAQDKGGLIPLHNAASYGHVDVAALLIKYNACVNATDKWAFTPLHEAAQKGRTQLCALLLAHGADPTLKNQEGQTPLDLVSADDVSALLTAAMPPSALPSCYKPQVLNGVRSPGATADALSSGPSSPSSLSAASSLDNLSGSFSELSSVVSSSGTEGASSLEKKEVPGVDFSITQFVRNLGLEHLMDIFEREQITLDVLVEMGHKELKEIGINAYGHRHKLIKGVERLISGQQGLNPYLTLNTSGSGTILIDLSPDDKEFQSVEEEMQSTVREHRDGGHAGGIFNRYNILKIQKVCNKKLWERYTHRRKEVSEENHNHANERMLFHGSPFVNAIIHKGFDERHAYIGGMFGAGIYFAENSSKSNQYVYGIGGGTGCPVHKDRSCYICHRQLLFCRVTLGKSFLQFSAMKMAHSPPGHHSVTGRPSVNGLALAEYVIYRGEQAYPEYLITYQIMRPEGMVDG

| SMILES | IC50 (tankyrase 2 (TNKS 2)) [nM] | IC50 (tankyrase 1 (TNKS 1)) [nM] | GI50 [1] [nM] |
| --- | --- | --- | --- |
| CN1CCCc2c1nc(N1CCC3(CC1)C(=O)N(C)c1cc(N4CCN(C(N)=O)CC4)cc(F)c13)[nH]c2=O [Example 466, 4-[4-fluoro-1-methyl-1′-(8-methyl-4-oxo-3,4,5,6,7,8-hexahydropyrido[2,3-d]pyrimidin-2-yl)-2-oxospiro[indole-3,4′-piperidine]-6-yl]piperazine-1-carboxamide] | < 20 | 20 to 200 | 600 to 1000 |
| CN1CCCc2c1nc(N1CCC3(CC1)C(=O)N(C)c1cc(N4CCC(C#N)CC4)cc(F)c13)[nH]c2=O [Example 467, 1-[4-fluoro-1-methyl-1′-(8-methyl-4-oxo-3,4,5,6,7,8-hexahydropyrido[2,3-]pyrimidin-2-yl)-2-oxospiro[indole-3,4′-piperidine]-6-yl]piperidine-4-carbonitrile] | < 20 | 20 to 200 | < 100 |
| O=C1N(CC2CCCO2)c2cccc(F)c2C12CCN(c1nc3c(c(=O)[nH]1)CCCN3)CC2 (stereo not drawn) [Example 469, 4-fluoro-1′-(4-hydroxy-5,6,7,8-tetrahydroypyrido[2,3-d]pyrimidin-2-yl)-1-(oxolan-2-ylmethyl)spiro[indole-3,4′-piperidine]-2-one] | < 20 | 20 to 200 | 100 to 600 |
| COCCN1C(=O)C2(CCN(c3nc4c(c(=O)[nH]3)CCCN4)CC2)c2c(F)cccc21 [Example 470, 4-fluoro-1′-(4-hydroxy-5,6,7,8-tetrahydroxypyrido[2,3-d]pyrimidin-2-yl)-1-(2-methoxyethyl)spiro[indole-3,4′-piperidin]-2-one] | < 20 | < 20 | 100 to 600 |
| O=C1OC2(CCN(c3nc4c(c(=O)[nH]3)CCCN4)CC2)c2c(F)cc(N3CCOCC3)cc21 [Example 471, 7-fluoro-1′-(4-hydroxy-6,7-dihydro-5H-pyrido[2,3-d]pyrimidin-2-yl)-6-morpholino-4-ylspiro[2-benzofuran-3,4′-piperidin]-1-one] | < 20 | < 20 | 600 to 1000 |
| CC1CN(c2cc(F)c3c(c2)C(=O)OC32CCN(c3nc4c(c(=O)[nH]3)CCCN4)CC2)CC(C)O1 (stereo not drawn) [Example 472, 6-(2,6-dimethylmorpholin-4-yl)-4-fluoro-1′-(4-hydroxy-5,6,7,8-tetrahydropyrido[2,3-d]pyrimidin-2-yl) spiro[2-benzofuran-3,4′-piperidin]-1-one] | < 20 | < 20 | 600 to 1000 |
| COc1ccc(F)c2c1N(CC(C)(C)O)CC21CCN(c2nc3c(c(=O)[nH]2)CCCN3)CC1 [Example 473, 2-(4-fluoro-1-(2-hydroxy-2-methylpropyl)-7-methoxyspiro[indoline-3,4′-piperidin]-1′-yl)-5,6,7,8-tetrahydropyeido[2,3-d]pyrimidin-4(3H)-one] | < 20 | 20 to 200 | 600 to 1000 |
| COc1ccc(F)c2c1NCC21CCN(c2nc3c(c(=O)[nH]2)CCCN3)CC1 [Example 474, 2-(4-fluoro-7-methoxyspiro[indoline-3,4′-piperidin]-1′-yl)-5,6,7,8-tetrahydropyrido[2,3-d]pyrimidin-4(3H)-one] | < 20 | < 20 | 100 to 600 |
